The source of these data is ChEMBL document CHEMBL1201862, “PubChem BioAssay data set” (2004).

The source made the active and inactive calls. Rule as the data show it, for most assays here: actives have a measured IC50 and inactives only a lower limit.

Common to all, as to type: functional
In assay [1] the target is T1, High affinity choline transporter 1 (Homo sapiens, UniProt Q9GZV3).
T1 sequence (Q9GZV3 whole entry): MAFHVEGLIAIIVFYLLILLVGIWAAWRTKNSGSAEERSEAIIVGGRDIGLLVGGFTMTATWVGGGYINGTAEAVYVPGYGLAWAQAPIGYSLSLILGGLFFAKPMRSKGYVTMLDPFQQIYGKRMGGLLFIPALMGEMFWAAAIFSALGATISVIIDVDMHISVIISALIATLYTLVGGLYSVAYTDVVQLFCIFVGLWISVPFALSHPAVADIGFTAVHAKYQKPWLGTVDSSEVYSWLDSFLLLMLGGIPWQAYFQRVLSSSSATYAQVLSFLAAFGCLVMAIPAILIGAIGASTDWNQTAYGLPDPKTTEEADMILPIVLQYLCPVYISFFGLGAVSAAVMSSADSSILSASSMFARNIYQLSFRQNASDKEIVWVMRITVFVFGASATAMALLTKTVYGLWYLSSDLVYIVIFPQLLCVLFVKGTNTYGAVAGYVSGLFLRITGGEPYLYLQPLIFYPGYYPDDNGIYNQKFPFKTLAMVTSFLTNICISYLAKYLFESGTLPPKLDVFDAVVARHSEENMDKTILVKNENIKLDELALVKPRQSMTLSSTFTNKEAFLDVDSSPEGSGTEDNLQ
Briefly: CHT inhibitors, dose response, cell-based, 10-point CRC, membrane potential dye (AID 588401).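 Also: membrane potential dye fluorescence of choline-evoked depolarization via CHT.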

Assay [2] has as its target T1, High affinity choline transporter 1. The assay is described as follows: CHT inhibitors, dose response, cell-based, 5-point CRC, membrane potential dye (AID 504840).
The target in assay [3] is T2, Sentrin-specific protease 8 (Homo sapiens, UniProt Q96LD8).
T2 sequence (Q96LD8 whole entry): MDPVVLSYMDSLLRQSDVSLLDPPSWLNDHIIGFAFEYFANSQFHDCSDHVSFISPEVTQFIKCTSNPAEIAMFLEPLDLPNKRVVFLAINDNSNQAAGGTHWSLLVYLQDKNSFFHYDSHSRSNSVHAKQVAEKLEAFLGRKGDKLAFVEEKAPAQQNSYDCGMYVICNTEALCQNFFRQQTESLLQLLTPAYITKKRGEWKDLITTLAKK

The target in assay [4] is T3, Sentrin-specific protease 6 (Homo sapiens, UniProt Q9GZR1).
T3 sequence (Q9GZR1 whole entry): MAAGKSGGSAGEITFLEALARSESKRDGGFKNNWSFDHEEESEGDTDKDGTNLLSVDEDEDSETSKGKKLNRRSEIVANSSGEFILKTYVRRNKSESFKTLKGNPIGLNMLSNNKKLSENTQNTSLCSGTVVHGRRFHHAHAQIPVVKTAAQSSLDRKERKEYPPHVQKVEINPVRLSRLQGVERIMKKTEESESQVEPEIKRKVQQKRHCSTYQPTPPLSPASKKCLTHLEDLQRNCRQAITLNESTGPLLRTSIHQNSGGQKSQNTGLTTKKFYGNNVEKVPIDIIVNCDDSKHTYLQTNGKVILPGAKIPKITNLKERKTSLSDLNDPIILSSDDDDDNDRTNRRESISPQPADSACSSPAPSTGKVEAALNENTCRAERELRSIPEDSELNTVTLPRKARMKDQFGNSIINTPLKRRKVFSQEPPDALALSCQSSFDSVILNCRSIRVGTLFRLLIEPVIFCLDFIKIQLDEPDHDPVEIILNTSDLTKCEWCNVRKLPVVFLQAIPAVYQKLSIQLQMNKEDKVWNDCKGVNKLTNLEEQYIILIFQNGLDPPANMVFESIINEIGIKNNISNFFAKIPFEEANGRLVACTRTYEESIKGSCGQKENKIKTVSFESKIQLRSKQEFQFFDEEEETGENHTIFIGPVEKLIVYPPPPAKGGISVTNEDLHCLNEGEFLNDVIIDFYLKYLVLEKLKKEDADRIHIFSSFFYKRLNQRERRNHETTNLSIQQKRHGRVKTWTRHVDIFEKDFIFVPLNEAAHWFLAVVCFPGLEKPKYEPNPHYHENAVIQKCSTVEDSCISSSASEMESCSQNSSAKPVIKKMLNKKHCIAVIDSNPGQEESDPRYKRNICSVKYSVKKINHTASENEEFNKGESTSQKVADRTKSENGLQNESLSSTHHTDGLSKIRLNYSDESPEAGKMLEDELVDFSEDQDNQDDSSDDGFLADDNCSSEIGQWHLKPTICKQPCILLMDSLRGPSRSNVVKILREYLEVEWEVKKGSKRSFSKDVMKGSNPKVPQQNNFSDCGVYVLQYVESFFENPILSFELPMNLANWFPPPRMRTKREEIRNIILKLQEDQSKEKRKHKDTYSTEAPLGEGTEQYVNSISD

The next assay relates to H4. Briefly: Luminescence Cell-Based Dose Response HTS to Identify Activators of 5'UTR Stem-Loop Driven Prion Protein mRNA Translation in H4 Neuroglioblastoma Cells. [Related pubchem assays: 1829 (Project Summary), 1814 (Primary HTS)]. The settings on record: Homo sapiens.
Assay [5] addresses T4, Caspase-3 (Homo sapiens, UniProt P42574).
T4 sequence (P42574 whole entry): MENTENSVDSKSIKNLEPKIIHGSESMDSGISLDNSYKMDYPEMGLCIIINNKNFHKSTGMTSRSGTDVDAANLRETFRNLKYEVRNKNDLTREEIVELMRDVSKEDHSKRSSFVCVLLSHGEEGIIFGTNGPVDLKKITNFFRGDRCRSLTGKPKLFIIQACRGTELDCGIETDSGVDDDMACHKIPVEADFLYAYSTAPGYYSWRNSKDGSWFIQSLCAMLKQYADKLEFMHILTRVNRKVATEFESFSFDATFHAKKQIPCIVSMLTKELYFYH
The assay is described as follows: SAR Analysis of small molecule inhibitors of Sentrin-specific proteases (SENPs) using a Caspase-3 Selectivity assay. [Related pubchem assays (depositor defined):AID2540, AID2599, AID434973, AID489001].

In assay [6] the target is T5, Sentrin-specific protease 7 (Homo sapiens, UniProt Q9BQF6).
T5 sequence (Q9BQF6 whole entry): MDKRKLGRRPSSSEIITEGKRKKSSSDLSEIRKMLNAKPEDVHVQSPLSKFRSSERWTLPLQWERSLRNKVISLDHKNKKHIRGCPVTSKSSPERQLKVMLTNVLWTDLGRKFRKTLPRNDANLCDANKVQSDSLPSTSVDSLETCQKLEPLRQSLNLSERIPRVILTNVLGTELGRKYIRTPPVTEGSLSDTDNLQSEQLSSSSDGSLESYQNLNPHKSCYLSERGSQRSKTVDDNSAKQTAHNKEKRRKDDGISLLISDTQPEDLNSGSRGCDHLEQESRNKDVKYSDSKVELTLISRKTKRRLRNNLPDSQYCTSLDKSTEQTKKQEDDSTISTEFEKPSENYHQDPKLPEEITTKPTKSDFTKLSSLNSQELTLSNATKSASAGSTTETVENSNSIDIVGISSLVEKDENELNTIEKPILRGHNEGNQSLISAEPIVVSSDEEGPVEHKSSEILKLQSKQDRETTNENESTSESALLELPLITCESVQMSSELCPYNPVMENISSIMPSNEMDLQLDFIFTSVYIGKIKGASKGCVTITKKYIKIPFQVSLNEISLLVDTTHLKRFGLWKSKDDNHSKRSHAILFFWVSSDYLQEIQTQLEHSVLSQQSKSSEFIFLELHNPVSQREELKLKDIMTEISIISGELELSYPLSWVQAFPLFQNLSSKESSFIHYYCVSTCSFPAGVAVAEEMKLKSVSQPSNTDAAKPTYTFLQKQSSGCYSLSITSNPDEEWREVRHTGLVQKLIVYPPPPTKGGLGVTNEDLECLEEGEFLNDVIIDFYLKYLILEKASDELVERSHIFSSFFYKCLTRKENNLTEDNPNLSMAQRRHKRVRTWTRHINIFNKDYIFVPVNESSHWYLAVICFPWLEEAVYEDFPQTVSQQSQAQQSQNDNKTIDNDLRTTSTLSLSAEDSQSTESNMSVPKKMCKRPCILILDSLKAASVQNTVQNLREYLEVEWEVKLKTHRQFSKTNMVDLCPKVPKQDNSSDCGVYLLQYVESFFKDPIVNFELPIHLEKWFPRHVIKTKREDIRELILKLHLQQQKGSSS

Assay [7] concerns the target T2, Sentrin-specific protease 8. Briefly: SENP8 protease inhibitors, SAR follow-up, biochemical, luminescence (AID 504501).
The target of assay [8] is T5, Sentrin-specific protease 7. Briefly: SENP7 protease inhibitors, SAR follow-up, biochemical, luminescence (AID 504497).
The target in assay [9] is T3, Sentrin-specific protease 6. The assay is described as follows: SAR Analysis of small molecule inhibitors of Sentrin-specific protease 6 (SENP6) using a Luminescent assay. [Related pubchem assays (depositor defined):AID2582, AID2599].
Assay [10] is described as follows: Luminescence Cell-Based Dose Confirmation HTS to Identify Activators of 5'UTR Stem-Loop Driven Alpha-Synuclein mRNA Translation in H4 Neuroglioblastoma Cells. [Related pubchem assays: 1829 (Project Summary), 1814 (Primary HTS)].
The target of assay [11] is T4, Caspase-3.

On to `O=C(COc1ccccc1Br)c1ccc(O)cc1O`, for which the IC50 in assay [1] was 11.2 µM (active); in [2], 2.29 µM (active).
The corresponding values for `CC(C)(C)NCC(O)Cn1cc(C=O)c2ccccc21` (stereo not drawn) are 0.113 µM (active) and 0.738 µM (active).
In the case of `O=C(O)c1ccc(N/N=C/c2cn(Cc3ccc(F)cc3)c3ccccc23)cc1`, the IC50 in assay [3] is 12.4 µM (active); in assay [4], 7.91 µM (active); on Caspase-3 [5] it was 49.8 µM (active); in assay [6], 8.78 µM (active); in [7], 6.77 µM (active); in assay [8], 5.08 µM (active). Further, the figures for the IC50 (in assay [9]; on Caspase-3 [11]) were 6.8 µM (active) and 89.1 µM (active), respectively. The EC50 (in the assay with H4; in assay [10]) was > 120 µM (not active) throughout.
Take `C(=N\Nc1ccccc1)/c1c[nH]c2ccccc12`: the IC50 at Caspase-3 [5] was > 99 µM (inactive); in [7] it was > 99 µM (inactive); in [8] it was 25.7 µM (active); in [9], > 99 µM (inactive).
